Like-named read-outs stand apart in the source and are kept apart here.
What was measured:
[1] = system: neuronal cell line derived from human neuroblastoma; details: neuronal cells, 24 hours
[2] = system: cardiomyocytic cell line derived from human ventricular heart tissue; test: Cell viability in cardiomyocyte compound screen (CellTiter-Glo); assay type: cell-based
Excerpt: Cells were stained with Hoechst 34580, CellTracker Green/CellMask Green Actin and MitoTracker Deep Red to detect nuclear material, cytoplasm/F-actin, and mitochondria, respectively, and cultured in poly-L-lysine-coated 96-well glass bottom plates at 15,800 cells/cm^2 and allowed to adhere overnight. For the screening, a total of 100 randomly organized compounds (TargetMol) were divided in 5 groups. Each group included an untreated condition, a vehicular DMSO control, and a known high-gigasome producing condition to comparatively study gigasome production rates. As a cell death control group, 500 nM Staurosporine was added to induce apoptosis. Cultures were incubated for 24 hours under gigasome inducing conditions at concentrations ranging between 10 nM and 10,000 nM. […] Cells remaining in the 96-well plates were assessed for viability using CellTiter-Glo (Promega).

[3] = system: cardiomyocytic cell line derived from human ventricular heart tissue; test: Small molecule compound screen of gigasome production in cardiomyocytic monocultures;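 also: gigasomes shed into the culture medium were imaged by confocal microscopy and counted as round particles lacking nuclear signal, extrapolated to the whole well, fold change is relative to DMSO vehicle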
Description: For the screening, a total of 100 randomly organized compounds (TargetMol) were divided in 5 groups. Each group included an untreated condition, a vehicular DMSO control, and a known high-gigasome producing condition to comparatively study gigasome production rates. As a cell death control group, 500 nM Staurosporine was added to induce apoptosis. Cultures were incubated for 24 hours under gigasome inducing conditions at concentrations ranging between 10 nM and 10,000 nM. […] The Zeiss ZEN Blue software was used to distribute imaging fields of view (positions) to create an unbiased imaging sample of a well. 5 images were taken using a Zeiss LSM 900 confocal microscope. […] The BioApps ZEN software package was used to perform cell nucleus segmentation and counting. After 24 hours, gigasomes were harvested from the cell culture media by gently removing from the top of each 96-well ⅔ of the total volume without disturbing the cell layer (containing the settled gigasomes) and by adding to each well the same amount of PBS containing 0.5 mM EDTA. The wells were washed twice gently, and the gigasome-containing media/0.5 mM EDTA PBS wash was transferred into the well of a 384-well glass bottom plate. Cells remaining in the 96-well plates were assessed for viability using CellTiter-Glo (Promega).
For gigasome analysis in 384-well plates, the Zeiss ZEN Blue software was used to distribute positions to create an unbiased imaging sample of a well. 6 images per well were taken using a Zeiss LSM 900 confocal microscope. […] A watershed binary segmentation step was performed to separate grouped objects. For each particle in the mask, characteristic parameters of the particle were calculated and saved. […] Particles of interest were identified by thresholding by area and circularity. […] Circularity, defined by the formula 4pi(area/perimeter^2, was set to be between 0.8, where a value of 1.0 is a perfect circle, and a value of 0 is a line. Gigasomes were identified from the particles of interest by thresholding by mean nuclear signal. The nuclear signal threshold was set using a value equal to one quarter of a threshold value calculated by the Li auto-threshold algorithm applied to the distribution of all particles of interest. Particles of interest with nuclear signal below this value were considered “negative” for nuclear material and were identified as gigasomes. A sampling factor was calculated to extrapolate the total quantity of a type of object (particles, particles of interest, gigasomes) in the well. The sampling factor was the percentage of the well's area that was imaged. […] In some experiments, the number of cells in the cell cultures were estimated with a cell counter. […] The normalized quantity or distribution of objects was described as a quantity or distribution of objects per 1000 cells.

[4] = system: neuronal cell line derived from human neuroblastoma; test: Small molecule compound screen of gigasome production in neuronal monocultures; details: for Fold Change of Gigasomes Produced vs. DMSO / Number of Gigasomes Produced: neuronal cells, 24 hours
[5] = Table 22, dose 100 nM, cardiomyocytes, 24 hours
[6] = Table 22, dose 1000 nM, cardiomyocytes, 24 hours
[7] = Homo sapiens, Cardiomyocyte, 24 h, read-out: Fold Change of Gigasomes Produced vs. DMSO
[8] = Table 23 (down-regulators), dose 10 nM, cardiomyocytes
[9] = Table 23 (down-regulators), dose 100 nM, cardiomyocytes
[10] = Table 23 (down-regulators), dose 1000 nM, cardiomyocytes
[11] = Table 23 (down-regulators), dose 10000 nM, cardiomyocytes
[12] = Homo sapiens, 24 h, read-out: Fold Change of Gigasomes Produced vs. DMSO
[13] = Table 22, dose 10 nM, cardiomyocytes, 24 hours
[14] = Table 22, dose 10000 nM, cardiomyocytes, 24 hours

SMILES	Viability ([1]; dose 1000 nM)	Viability [2, 5]	Fold Change of Gigasomes Produced vs. DMSO [3, 5]	Number of Gigasomes Produced [3, 5]	Number of Gigasomes Produced [3, 6]	Fold Change of Gigasomes Produced vs. DMSO ([4]; dose 1000 nM)	Number of Gigasomes Produced ([4]; dose 1000 nM)	Viability ([1]; dose 10 nM)	Viability ([1]; dose 100 nM)	Viability ([1]; dose 10000 nM)	Viability ([2]; human, 24 h, 1000 nM)	Viability ([2]; human, 24 h, 10000 nM)	fold induction at 1 µM [3, 7]	fold induction at 10 µM [3, 7]	Number of Gigasomes Produced ([4]; dose 10 nM)	Number of Gigasomes Produced ([4]; dose 100 nM)	Number of Gigasomes Produced ([4]; dose 10000 nM)	Number of Gigasomes Produced [3, 13]	Number of Gigasomes Produced [3, 14]	further results
CC1=C(O)C(=O)C=C2C1=CC=C1[C@@]2(C)CC[C@@]2(C)[C@@H]3C[C@](C)(C(=O)O)CC[C@]3(C)CC[C@]12C [Tripterin, reference compound]	>75%	>75%	0.75-1.0	<150	375-400	2.0-3.0	75-85	–	–	–	–	–	–	–	–	–	–	–	–	Viability [2, 6]: 50-75%; Fold Change of Gigasomes Produced vs. DMSO [3, 6]: 3.0-4.0
O=c1ncn2nc(Sc3ccc(F)cc3F)ccc2c1-c1c(Cl)cccc1Cl [Neflamapimod]	100%	–	–	–	–	–	20-25	100%	>75%	100%	>75%	100.0%	0.75 to 1	0.75 to 1	30-35	25-30	15-20	–	–	Viability ([2]; human, 24 h, 10 nM): 100.0%; Viability ([2]; human, 24 h, 100 nM): 100.0%; fold induction at 0.01 µM [3, 7]: 1 to 1.25; fold induction at 0.1 µM [3, 7]: 0.75 to 1; Number of Gigasomes Produced [3, 8]: 120-135; Number of Gigasomes Produced [3, 9]: 90-105; Number of Gigasomes Produced [3, 10]: 75-90; Number of Gigasomes Produced [3, 11]: 75-90; fold induction at 0.01 µM [4, 12]: 0.75 to 1; fold induction at 0.1 µM [4, 12]: 0.75 to 1; fold induction at 1 µM [4, 12]: 0.5 to 0.75; fold induction at 10 µM [4, 12]: 0.5 to 0.75
N#C/C(=C\c1cn(-c2ccccc2)c2ccccc12)C(=O)O [UK-5099, reference compound]	100%	–	–	–	–	0.5-0.75	15-20	100%	100%	100%	–	–	–	–	20-25	15-20	10-15	–	–	downregulation of gigasome production ([3]; cardiomyocytes, doses 10-10,000 nM, 24 h): dose-dependent downregulation; Fold Change of Gigasomes Produced vs. DMSO ([4]; dose 10 nM): 0.5-0.75; Fold Change of Gigasomes Produced vs. DMSO ([4]; dose 100 nM): 0.5-0.75; Fold Change of Gigasomes Produced vs. DMSO ([4]; dose 10000 nM): 0.25-0.5
CC(N)=NCc1cccc(CN)c1.Cl.Cl [1400W dihydrochloride]	–	–	–	–	–	–	–	–	–	–	–	–	–	–	–	–	–	150-175	–	Viability [2, 13]: 100%; Viability [2, 8]: 100.0%; Viability [2, 9]: 100.0%; Viability [2, 10]: 100.0%; Viability [2, 11]: 100.0%; Number of Gigasomes Produced [3, 8]: >150; Number of Gigasomes Produced [3, 9]: 90-105; Number of Gigasomes Produced [3, 10]: 90-105; Number of Gigasomes Produced [3, 11]: 50-75
O=C(Nc1ccncc1)c1cc([N+](=O)[O-])ccc1Cl [Compound T0070907]	–	100%	1.0-1.25	150-175	–	–	–	–	–	–	–	–	–	–	–	–	–	150-175	–	Viability [2, 13]: 100%; Fold Change of Gigasomes Produced vs. DMSO [3, 13]: 1.0-1.25
CO/C1=C\C(C)=C\[C@@H](C)[C@@H](O)[C@@H](C)C/C(C)=C/C=C/[C@H](OC)[C@@H]([C@@H](C)[C@@H](O)[C@H](C)[C@@]2(O)C[C@@H](O)[C@H](C)[C@@H](C(C)C)O2)OC1=O [Bafilomycin A1, reference compound]	>75%	>75%	1.5-1.75	225-250	250-275	2.0-3.0	>115	>75%	100%	>75%	–	–	–	–	85-95	105-115	>115	–	250-275	Viability [2, 6]: >75%; Viability [2, 14]: >75%; Fold Change of Gigasomes Produced vs. DMSO [3, 6]: 1.75-2.0; Fold Change of Gigasomes Produced vs. DMSO [3, 14]: 1.75-2.0; Fold Change of Gigasomes Produced vs. DMSO ([4]; dose 10 nM): 1.75-2.0; Fold Change of Gigasomes Produced vs. DMSO ([4]; dose 100 nM): 2.0-3.0; Fold Change of Gigasomes Produced vs. DMSO ([4]; dose 10000 nM): 3.0-4.0
Nc1ncn([C@@H]2O[C@H](CO)[C@@H](O)[C@H]2O)c(=O)n1 [Compound 5-Azacytidine, 5-Azacytidine]	–	–	–	–	150-175	–	–	–	–	–	50-75%	–	1 to 1.25	–	–	–	–	–	–	–
COc1cc(C(C)=O)ccc1O [Apocynin]	–	–	–	–	–	–	–	–	–	–	–	>75%	–	1 to 1.25	–	–	–	150-175	150-175	Viability ([2]; human, 24 h, 10 nM): >75%; fold induction at 0.01 µM [3, 7]: 1 to 1.25
NC1=N[C@@]2(c3cc(NC(=O)c4ccc(F)cn4)ccc3F)COC[C@H]2CS1 [LY288672, reference compound]	–	–	–	–	175-200	–	–	–	–	–	>75%	–	1.5 to 1.75	–	–	–	–	–	–	–
CCN(CC)CCNC(=O)c1c(C)[nH]c(/C=C2\C(=O)Nc3ccc(F)cc32)c1C [Sunitinib]	–	–	–	–	–	–	–	–	–	–	–	50-75%	–	1.5 to 1.75	–	–	–	–	200-225	–

Source: patent US20240400986A1, “MEMBRANE BOUND COMPOSITIONS AND METHODS RELATING TO SAME” (FLAGSHIP PIONEERING INNOVATIONS VII, LLC, priority 2021, published 2024)
